The values that follow come from ChEMBL document CHEMBL4229454, “Structural optimization and in vitro profiling of N-phenylbenzamide-based farnesoid X receptor antagonists” (Bioorg Med Chem, 2018).

Each structure is given as a SMILES string. In brackets after ≈: the same amount, converted by molar mass. Activity calls are given as the source filed them. The calls are words filed in the database; no cut-off is given here.

A word on the solubility: it is the concentration that dissolves in the medium under given conditions.

Series [1] concerns the target T1, Bile acid receptor (Homo sapiens) (UniProt Q96RI1).
T1 sequence (whole entry): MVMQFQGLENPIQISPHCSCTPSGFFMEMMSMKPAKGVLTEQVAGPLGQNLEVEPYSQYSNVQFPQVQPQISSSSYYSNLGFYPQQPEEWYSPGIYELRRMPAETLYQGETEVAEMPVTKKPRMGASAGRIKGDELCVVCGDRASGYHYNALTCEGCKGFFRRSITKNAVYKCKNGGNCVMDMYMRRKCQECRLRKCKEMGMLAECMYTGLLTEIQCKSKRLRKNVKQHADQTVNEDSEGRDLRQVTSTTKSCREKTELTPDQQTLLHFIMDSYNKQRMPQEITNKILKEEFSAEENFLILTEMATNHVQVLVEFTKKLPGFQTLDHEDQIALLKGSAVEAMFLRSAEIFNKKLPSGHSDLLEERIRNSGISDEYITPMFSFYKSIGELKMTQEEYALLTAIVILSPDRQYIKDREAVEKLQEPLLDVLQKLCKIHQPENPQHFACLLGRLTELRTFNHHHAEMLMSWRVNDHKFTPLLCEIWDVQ
The series is described as follows: Antagonist activity at full length human FXR expressed in HeLa cells co-expressing BSEP-pGL3/pSG5-hRXR assessed as inhibition of GW4064-induced receptor activation at 30 uM after 24 hrs by luciferase reporter gene assay. Format: cell-based. On the technique in general: In a reporter assay the amount or activity of a reporter protein is the signal.

The target in series [2] is Luciferin 4-monooxygenase (Photinus pyralis) (UniProt P08659). In words: Inhibition of GW4064-induced firefly luciferase expression in HeLa cells co-expressing full length human FXR, BSEP-pGL3 and pSG5-hRXR at 1 uM treated at 23 hrs post GW4064 treatment for 1 hr by luminescence assay. Format: cell-based.
For series [3], the system named is HepG2. In words: Cytotoxicity against human HepG2 cells assessed as reduction in cell viability at 100 uM after 48 hrs by WST1 assay relative to control. Type of series: cell-based. As to conditions: hepg2, 48 h. A general note: Tetrazolium assays rely on reduction of a dye to a coloured formazan, in cell work by metabolically active cells.
The test system of series [4] is HepG2. In words: Cytotoxicity against human HepG2 cells assessed as reduction in cell viability up to 100 uM after 48 hrs by WST1 assay. As to conditions: hepg2, 48 h. Type of series: cell-based.
The next series relates to HeLa. The series is described as follows: Cytotoxicity against human HeLa cells co-expressing full length human FXR, BSEP-pGL3 and pSG5-hRXR assessed as reduction in cell viability up to 50 uM after 48 hrs by WST1 assay. Format: ADME, cell-based.
The next series concerns HEK293. The series is described as follows: Cytotoxicity against HEK293 cells assessed as reduction in cell viability at >10 uM after 48 hrs by WST1 assay. Format: cell-based. The settings on record: human, hek293, 48 h.
Series [5] in a line: Metabolic stability in Sprague-Dawley rat liver microsomes assessed as parent compound remaining at 10 uM in presence of NADPH measured immediately by HPLC analysis. Type of series: ADME, microsome. As to conditions: read-out: Stability. Background: Microsomes from liver hold many membrane-bound enzymes, among them those of drug oxidation.
Series [6] is described as follows: Metabolic stability in Sprague-Dawley rat liver microsomes assessed as parent compound remaining at 10 uM in presence of NADPH measured after 15 mins by HPLC analysis. Type of series: ADME, microsome. As to conditions: read-out: Stability.
Series [7] can be described thus: Metabolic stability in Sprague-Dawley rat liver microsomes assessed as parent compound remaining at 10 uM in presence of NADPH measured after 30 mins by HPLC analysis. Type of series: ADME, microsome. The settings on record: read-out: Stability.
The nature of series [8]: Metabolic stability in Sprague-Dawley rat liver microsomes assessed as parent compound remaining at 10 uM in presence of NADPH measured after 60 mins by HPLC analysis. Format: ADME, microsome. As to conditions: read-out: Stability.
Series [9] is described as follows: Aqueous solubility of the compound. As to conditions: water. Format: physicochemical.
Series [10] addresses T2, Peroxisome proliferator-activated receptor gamma (Homo sapiens) (UniProt P37231).
T2 sequence (whole entry): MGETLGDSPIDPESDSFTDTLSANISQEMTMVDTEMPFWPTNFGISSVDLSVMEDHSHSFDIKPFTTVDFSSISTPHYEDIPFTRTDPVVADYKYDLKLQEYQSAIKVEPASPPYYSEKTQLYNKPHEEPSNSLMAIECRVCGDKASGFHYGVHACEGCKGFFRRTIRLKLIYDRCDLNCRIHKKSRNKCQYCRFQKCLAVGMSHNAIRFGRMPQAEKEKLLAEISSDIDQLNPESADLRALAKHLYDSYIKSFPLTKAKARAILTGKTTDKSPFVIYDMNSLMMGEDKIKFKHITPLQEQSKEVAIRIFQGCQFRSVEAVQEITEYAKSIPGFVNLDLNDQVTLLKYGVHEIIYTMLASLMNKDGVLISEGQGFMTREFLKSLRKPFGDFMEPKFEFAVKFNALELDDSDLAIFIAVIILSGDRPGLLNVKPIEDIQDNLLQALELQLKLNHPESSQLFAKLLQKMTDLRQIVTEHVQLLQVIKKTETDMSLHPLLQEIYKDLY
In words: Agonist activity at GAL4-fused human PPARgamma LBD expressed in HEK293T cells at 1 uM after 12 to 14 hrs by luciferase reporter gene assay. Format: cell-based.

The target of series [11] is T3, Nuclear receptor subfamily 1 group I member 3 (Homo sapiens, UniProt Q14994).
T3 sequence (Q14994 whole entry): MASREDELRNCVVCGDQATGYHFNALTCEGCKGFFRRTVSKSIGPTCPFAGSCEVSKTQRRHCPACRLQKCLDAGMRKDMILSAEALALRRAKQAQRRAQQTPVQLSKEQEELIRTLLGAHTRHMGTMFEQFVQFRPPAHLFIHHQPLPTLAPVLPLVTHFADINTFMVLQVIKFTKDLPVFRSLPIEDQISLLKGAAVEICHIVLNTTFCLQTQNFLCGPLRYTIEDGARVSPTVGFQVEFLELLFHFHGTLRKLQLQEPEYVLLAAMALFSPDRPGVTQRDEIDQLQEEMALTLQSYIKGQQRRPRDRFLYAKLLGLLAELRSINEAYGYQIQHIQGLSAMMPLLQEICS
In words: Agonist activity at GAL4-fused human CAR LBD expressed in HEK293T cells at 1 uM after 12 to 14 hrs by luciferase reporter gene assay. Format: cell-based.

In series [12] the target is T4, Retinoic acid receptor RXR-alpha (Homo sapiens) (UniProt P19793).
T4 sequence (whole entry): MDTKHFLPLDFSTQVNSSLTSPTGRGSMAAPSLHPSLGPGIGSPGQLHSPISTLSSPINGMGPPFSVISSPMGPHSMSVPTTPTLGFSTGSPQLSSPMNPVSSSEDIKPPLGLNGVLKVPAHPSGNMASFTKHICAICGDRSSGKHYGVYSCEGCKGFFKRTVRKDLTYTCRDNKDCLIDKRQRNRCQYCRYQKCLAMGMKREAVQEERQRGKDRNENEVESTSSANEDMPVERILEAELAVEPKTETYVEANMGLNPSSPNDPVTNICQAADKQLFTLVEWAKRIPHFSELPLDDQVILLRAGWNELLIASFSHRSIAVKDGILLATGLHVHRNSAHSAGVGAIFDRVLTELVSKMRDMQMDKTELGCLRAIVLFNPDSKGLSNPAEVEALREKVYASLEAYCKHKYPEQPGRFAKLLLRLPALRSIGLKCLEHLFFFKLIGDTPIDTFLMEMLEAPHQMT
In words: Agonist activity at GAL4-fused human RXRalpha LBD expressed in HEK293T cells at 1 uM after 12 to 14 hrs by luciferase reporter gene assay. Type of series: cell-based.

The target in series [13] is T5, Oxysterols receptor LXR-alpha (Homo sapiens) (UniProt Q13133).
T5 sequence (whole entry): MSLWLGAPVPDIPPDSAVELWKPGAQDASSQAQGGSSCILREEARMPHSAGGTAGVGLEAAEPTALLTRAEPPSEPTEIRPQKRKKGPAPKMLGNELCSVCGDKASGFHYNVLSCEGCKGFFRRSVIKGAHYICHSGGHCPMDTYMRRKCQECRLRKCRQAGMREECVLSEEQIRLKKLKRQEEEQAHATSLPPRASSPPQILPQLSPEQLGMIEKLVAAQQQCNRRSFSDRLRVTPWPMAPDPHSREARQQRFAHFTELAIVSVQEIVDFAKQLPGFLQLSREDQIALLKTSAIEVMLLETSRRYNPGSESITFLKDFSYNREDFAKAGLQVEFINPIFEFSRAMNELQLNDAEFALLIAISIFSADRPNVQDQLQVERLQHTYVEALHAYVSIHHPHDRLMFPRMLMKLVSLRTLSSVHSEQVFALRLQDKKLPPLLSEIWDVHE
The series is described as follows: Agonist activity at GAL4-fused human LXRalpha LBD expressed in HEK293T cells at 1 uM after 12 to 14 hrs by luciferase reporter gene assay. Type of series: cell-based.

Series [14] deals with T2, Peroxisome proliferator-activated receptor gamma (Homo sapiens). In words: Antagonist activity at GAL4-fused human PPARgamma LBD expressed in HEK293T cells at 1 uM after 12 to 14 hrs by luciferase reporter gene assay. Format: cell-based.
Series [15] concerns the target T3, Nuclear receptor subfamily 1 group I member 3. In words: Antagonist activity at GAL4-fused human CAR LBD expressed in HEK293T cells at 1 uM after 12 to 14 hrs by luciferase reporter gene assay. Format: cell-based.
Series [16] addresses T4, Retinoic acid receptor RXR-alpha (Homo sapiens). The series is described as follows: Antagonist activity at GAL4-fused human RXRalpha LBD expressed in HEK293T cells at 1 uM after 12 to 14 hrs by luciferase reporter gene assay. Type of series: cell-based.
Series [17] deals with T5, Oxysterols receptor LXR-alpha (Homo sapiens). In words: Antagonist activity at GAL4-fused human LXRalpha LBD expressed in HEK293T cells at 1 uM after 12 to 14 hrs by luciferase reporter gene assay. Format: cell-based.

Sequence of Luciferin 4-monooxygenase (Photinus pyralis) (P08659 whole entry): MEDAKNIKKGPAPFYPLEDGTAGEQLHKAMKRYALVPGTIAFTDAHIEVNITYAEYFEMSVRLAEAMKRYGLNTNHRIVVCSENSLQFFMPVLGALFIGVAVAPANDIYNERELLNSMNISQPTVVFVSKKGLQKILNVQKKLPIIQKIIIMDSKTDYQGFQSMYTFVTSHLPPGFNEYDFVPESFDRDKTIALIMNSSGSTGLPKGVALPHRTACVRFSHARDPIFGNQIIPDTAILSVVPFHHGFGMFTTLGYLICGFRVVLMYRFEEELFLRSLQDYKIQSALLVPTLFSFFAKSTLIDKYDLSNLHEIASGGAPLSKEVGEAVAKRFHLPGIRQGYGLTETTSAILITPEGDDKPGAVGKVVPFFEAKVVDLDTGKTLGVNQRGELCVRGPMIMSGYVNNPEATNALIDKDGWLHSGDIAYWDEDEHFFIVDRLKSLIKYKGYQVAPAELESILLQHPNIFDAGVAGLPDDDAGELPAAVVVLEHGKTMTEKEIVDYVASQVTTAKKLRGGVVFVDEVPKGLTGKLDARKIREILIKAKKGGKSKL

With `COc1ccc(C(C)(C)C)cc1C(=O)Nc1ccc(CC(=O)O)cc1`, in [1], the inhibition result is “inactive”.

As to `CC(C)(C)c1ccc(C(=O)Nc2cccc(CC(=O)O)c2)cc1`, the inhibition entry in [2] was “inactive”.

As to `CC(C)(C)c1ccc(C(=O)Nc2ccccc2CC(=O)O)cc1`, in the series on HepG2 [3], the Activity came out at 118%.

Turning to `COc1cc(C(C)(C)C)ccc1C(=O)Nc1ccc(CC(=O)O)cc1`, the inhibition result in series [2], in series [14], in [16] and in [17] was “inactive” throughout. Also, the Activity entry in the series on HepG2 [4] is “Non-Toxic”; in the series on HeLa, “Non-Toxic”; with HEK293 it was “Non-Toxic”; in series [11], “Not Active”. Moreover, the remaining at 0 min, 10 µM in [5] was 100%. In [6], the remaining at 0.25 h, 10 µM worked out at 98%. The remaining at 0.5 h, 10 µM in [7] was determined as 96%. Besides, in series [8], the remaining at 1 h, 10 µM came out at 97%. In addition, in series [9], the concentration in solution (solubility) was 16 µg/mL (≈ 46.9 µM). In addition, the outcome in series [10], in series [12] and in series [13] was inactive. The “inhibition (INH)” value in [15] is “Not Active”.

For `COc1cc(C(=O)Nc2ccc(CC(=O)O)cc2)ccc1C(C)(C)C`, the Activity in the series on HepG2 [3] is on record as 112%.

Turning to `O=C(O)Cc1ccc(NC(=O)c2ccccc2-c2ccccc2)cc1`, the inhibition entry in series [1] is “inactive”.
